The supplement of paper PMC10733146

Key:
Test in all cases: viability relative to DMSO control (fraction); higher = less drug effect (more viable cells)
Conditions in all cases: 48 h
[1] = test system: primary ALL patient cells (S088)
Outline: (§1)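 In 384-well plates with compounds pre-plated at five concentrations (one well per concentration), primary mononuclear tumour cells were plated at 4 × 10^4 cells per well. The cells came from blood or bone marrow by Ficoll isolation or from processed lymph node, and were used fresh or cryopreserved. Culture ran for 48 h at 37 °C and 5% CO2 in RPMI-1640 containing penicillin/streptomycin, L-glutamine and human serum. Viability was read as CellTiter-Glo luminescence, normalised to the median of 16 inner DMSO wells.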

[2] = test system: primary CLL patient cells (S031)
Outline: as §1

[3] = test system: primary AML patient cells (S079)
Outline: as §1

[4] = test system: primary MCL patient cells (S063)
Outline: as §1

[5] = test system: primary AML patient cells (S056)
Outline: as §1

[6] = test system: primary AML patient cells (S072)
Outline: as §1

[7] = test system: primary AML patient cells (S006)
Outline: as §1

[8] = test system: primary ALL patient cells (S048)
Outline: as §1

[9] = test system: primary AML patient cells (S089)
Outline: as §1

[10] = test system: primary AML patient cells (S055)
Outline: as §1

[11] = test system: primary AML patient cells (S071)
Outline: as §1

[12] = test system: primary AML patient cells (S060)
Outline: as §1

[13] = test system: primary DLBCL patient cells (S082)
Outline: as §1

[14] = test system: primary CLL patient cells (S043)
Outline: as §1

Compound: N#Cc1ccnc(N2C(=O)CC[C@H]2C(=O)N(c2cncc(F)c2)[C@H](C(=O)NC2CC(F)(F)C2)c2ccccc2Cl)c1 [AG-120]
- viability ([1]; 0.024 µM): 0.727
- viability ([1]; 0.12 µM): 0.745
- viability ([1]; 0.6 µM): 0.533
- viability ([1]; 3 µM): 0.7
- viability ([1]; 15 µM): 0.499
- viability ([2]; 0.024 µM): 0.982
- viability ([2]; 0.12 µM): 0.912
- viability ([2]; 0.6 µM): 0.773
- viability ([2]; 3 µM): 0.807
- viability ([2]; 15 µM): 0.715
- viability ([3]; 0.024 µM): 0.978
- viability ([3]; 0.12 µM): 0.983
- viability ([3]; 0.6 µM): 0.879
- viability ([3]; 3 µM): 0.959
- viability ([3]; 15 µM): 0.844
- viability ([4]; 0.024 µM): 1.16
- viability ([4]; 0.12 µM): 1.1
- viability ([4]; 0.6 µM): 0.929
- viability ([4]; 3 µM): 1.15
- viability ([4]; 15 µM): 0.789
- viability ([5]; 0.024 µM): 0.866
- viability ([5]; 0.12 µM): 0.833
- viability ([5]; 0.6 µM): 0.72
- viability ([5]; 3 µM): 0.74
- viability ([5]; 15 µM): 0.577
- viability ([6]; 0.024 µM): 0.983
- viability ([6]; 0.12 µM): 1.1
- viability ([6]; 0.6 µM): 0.87
- viability ([6]; 3 µM): 0.919
- viability ([6]; 15 µM): 0.799
- viability ([7]; 0.024 µM): 1.07
- viability ([7]; 0.12 µM): 1.13
- viability ([7]; 0.6 µM): 0.986
- viability ([7]; 3 µM): 1.08
- viability ([7]; 15 µM): 0.901
- viability ([8]; 0.024 µM): 0.828
- viability ([8]; 0.12 µM): 0.865
- viability ([8]; 0.6 µM): 0.735
- viability ([8]; 3 µM): 1.01
- viability ([8]; 15 µM): 0.745
- viability ([9]; 0.024 µM): 0.664
- viability ([9]; 0.12 µM): 0.916
- viability ([9]; 0.6 µM): 0.818
- viability ([9]; 3 µM): 0.903
- viability ([9]; 15 µM): 0.827
- viability ([10]; 0.024 µM): 1.11
- viability ([10]; 0.12 µM): 1.13
- viability ([10]; 0.6 µM): 1.01
- viability ([10]; 3 µM): 1.09
- viability ([10]; 15 µM): 0.964
- viability ([11]; 0.024 µM): 1.03
- viability ([11]; 0.12 µM): 1.05
- viability ([11]; 0.6 µM): 0.922
- viability ([11]; 3 µM): 0.919
- viability ([11]; 15 µM): 0.751
- viability ([12]; 0.024 µM): 1.05
- viability ([12]; 0.12 µM): 1.1
- viability ([12]; 0.6 µM): 0.937
- viability ([12]; 3 µM): 1.16
- viability ([12]; 15 µM): 0.938
- viability ([13]; 0.024 µM): 1.03
- viability ([13]; 0.12 µM): 1.06
- viability ([13]; 0.6 µM): 0.895
- viability ([13]; 3 µM): 1.05
- viability ([13]; 15 µM): 0.935
- viability ([14]; 0.024 µM): 0.819
- viability ([14]; 0.12 µM): 0.925
- viability ([14]; 0.6 µM): 0.925
- viability ([14]; 3 µM): 0.91
- viability ([14]; 15 µM): 0.837

Compound: O=C(Nc1cccc(C(F)(F)F)c1)Nc1cc(S(=O)(=O)NC2CC2)ccc1-c1ccsc1 [AGI-6780]
- viability ([1]; 0.024 µM): 0.408
- viability ([1]; 0.12 µM): 0.417
- viability ([1]; 0.6 µM): 0.322
- viability ([1]; 3 µM): 0.258
- viability ([1]; 15 µM): 0.205
- viability ([2]; 0.024 µM): 0.679
- viability ([2]; 0.12 µM): 0.703
- viability ([2]; 0.6 µM): 0.727
- viability ([2]; 3 µM): 0.701
- viability ([2]; 15 µM): 0.612
- viability ([3]; 0.024 µM): 0.935
- viability ([3]; 0.12 µM): 0.943
- viability ([3]; 0.6 µM): 0.925
- viability ([3]; 3 µM): 0.887
- viability ([3]; 15 µM): 0.802
- viability ([4]; 0.024 µM): 0.935
- viability ([4]; 0.12 µM): 0.969
- viability ([4]; 0.6 µM): 0.96
- viability ([4]; 3 µM): 0.843
- viability ([4]; 15 µM): 0.982
- viability ([5]; 0.024 µM): 1.03
- viability ([5]; 0.12 µM): 0.821
- viability ([5]; 0.6 µM): 0.834
- viability ([5]; 3 µM): 0.783
- viability ([5]; 15 µM): 0.7
- viability ([6]; 0.024 µM): 0.98
- viability ([6]; 0.12 µM): 0.904
- viability ([6]; 0.6 µM): 0.884
- viability ([6]; 3 µM): 0.764
- viability ([6]; 15 µM): 0.769
- viability ([7]; 0.024 µM): 0.94
- viability ([7]; 0.12 µM): 1.01
- viability ([7]; 0.6 µM): 1.02
- viability ([7]; 3 µM): 0.974
- viability ([7]; 15 µM): 0.993
- viability ([8]; 0.024 µM): 0.7
- viability ([8]; 0.12 µM): 0.636
- viability ([8]; 0.6 µM): 0.599
- viability ([8]; 3 µM): 0.622
- viability ([8]; 15 µM): 0.61
- viability ([9]; 0.024 µM): 0.717
- viability ([9]; 0.12 µM): 0.925
- viability ([9]; 0.6 µM): 0.822
- viability ([9]; 3 µM): 0.84
- viability ([9]; 15 µM): 0.637
- viability ([10]; 0.024 µM): 0.912
- viability ([10]; 0.12 µM): 0.919
- viability ([10]; 0.6 µM): 0.874
- viability ([10]; 3 µM): 0.859
- viability ([10]; 15 µM): 0.85
- viability ([11]; 0.024 µM): 0.803
- viability ([11]; 0.12 µM): 0.828
- viability ([11]; 0.6 µM): 0.826
- viability ([11]; 3 µM): 0.78
- viability ([11]; 15 µM): 0.607
- viability ([12]; 0.024 µM): 0.963
- viability ([12]; 0.12 µM): 1
- viability ([12]; 0.6 µM): 0.991
- viability ([12]; 3 µM): 0.886
- viability ([12]; 15 µM): 0.91
- viability ([13]; 0.024 µM): 0.796
- viability ([13]; 0.12 µM): 0.96
- viability ([13]; 0.6 µM): 0.91
- viability ([13]; 3 µM): 0.905
- viability ([13]; 15 µM): 0.983
- viability ([14]; 0.024 µM): 0.927
- viability ([14]; 0.12 µM): 1.05
- viability ([14]; 0.6 µM): 0.988
- viability ([14]; 3 µM): 0.905
- viability ([14]; 15 µM): 0.935

Compound: Nc1ncn([C@@H]2O[C@H](CO)[C@@H](O)[C@H]2O)c(=O)n1 [Azacytidine (Vidaza)]
- viability ([1]; 0.032 µM): 0.958
- viability ([1]; 0.16 µM): 1.06
- viability ([1]; 0.8 µM): 0.934
- viability ([1]; 4 µM): 0.552
- viability ([1]; 20 µM): 0.233
- viability ([2]; 0.032 µM): 1.08
- viability ([2]; 0.16 µM): 1.01
- viability ([2]; 0.8 µM): 0.989
- viability ([2]; 4 µM): 0.539
- viability ([2]; 20 µM): 0.0698
- viability ([3]; 0.032 µM): 0.972
- viability ([3]; 0.16 µM): 1.09
- viability ([3]; 0.8 µM): 0.942
- viability ([3]; 4 µM): 0.671
- viability ([3]; 20 µM): 0.304
- viability ([4]; 0.032 µM): 1.04
- viability ([4]; 0.16 µM): 1.07
- viability ([4]; 0.8 µM): 1.03
- viability ([4]; 4 µM): 0.839
- viability ([4]; 20 µM): 0.173
- viability ([5]; 0.032 µM): 0.987
- viability ([5]; 0.16 µM): 0.997
- viability ([5]; 0.8 µM): 0.467
- viability ([5]; 4 µM): 0.0878
- viability ([5]; 20 µM): 0.078
- viability ([6]; 0.032 µM): 1.03
- viability ([6]; 0.16 µM): 1.02
- viability ([6]; 0.8 µM): 0.958
- viability ([6]; 4 µM): 0.83
- viability ([6]; 20 µM): 0.652
- viability ([7]; 0.032 µM): 1.07
- viability ([7]; 0.16 µM): 0.973
- viability ([7]; 0.8 µM): 0.426
- viability ([7]; 4 µM): 0.0789
- viability ([7]; 20 µM): 0.0614
- viability ([8]; 0.032 µM): 0.926
- viability ([8]; 0.16 µM): 0.989
- viability ([8]; 0.8 µM): 0.695
- viability ([8]; 4 µM): 0.239
- viability ([8]; 20 µM): 0.102
- viability ([9]; 0.032 µM): 0.841
- viability ([9]; 0.16 µM): 1.05
- viability ([9]; 0.8 µM): 0.67
- viability ([9]; 4 µM): 0.0823
- viability ([9]; 20 µM): 0.0388
- viability ([10]; 0.032 µM): 1.04
- viability ([10]; 0.16 µM): 1.05
- viability ([10]; 0.8 µM): 0.806
- viability ([10]; 4 µM): 0.233
- viability ([10]; 20 µM): 0.0906
- viability ([11]; 0.032 µM): 0.968
- viability ([11]; 0.16 µM): 0.985
- viability ([11]; 0.8 µM): 0.695
- viability ([11]; 4 µM): 0.29
- viability ([11]; 20 µM): 0.131
- viability ([12]; 0.032 µM): 1
- viability ([12]; 0.16 µM): 1.02
- viability ([12]; 0.8 µM): 1.02
- viability ([12]; 4 µM): 1.02
- viability ([12]; 20 µM): 0.923
- viability ([13]; 0.032 µM): 0.969
- viability ([13]; 0.16 µM): 1.08
- viability ([13]; 0.8 µM): 1.07
- viability ([13]; 4 µM): 1.04
- viability ([13]; 20 µM): 0.26
- viability ([14]; 0.032 µM): 0.937
- viability ([14]; 0.16 µM): 1.11
- viability ([14]; 0.8 µM): 0.889
- viability ([14]; 4 µM): 0.716
- viability ([14]; 20 µM): 0.55
